Experimental data from PubChem BioAssay AID1033 (Sanford-Burnham Center for Chemical Genomics, 2008).
Activity calls are given as the source filed them. The rule behind the calls is not given here.

Biological target: Chaperone protein DnaK (Escherichia coli (strain K12)) (UniProt P0A6Y8)
Assay: E. coli DnaK SBD ligand binding – biophysical, NMR, chaperone (AID 1033)
Details: Purified DnaK SBD

Chain of Chaperone protein DnaK (Escherichia coli (strain K12)) (P0A6Y8 whole entry, looked up): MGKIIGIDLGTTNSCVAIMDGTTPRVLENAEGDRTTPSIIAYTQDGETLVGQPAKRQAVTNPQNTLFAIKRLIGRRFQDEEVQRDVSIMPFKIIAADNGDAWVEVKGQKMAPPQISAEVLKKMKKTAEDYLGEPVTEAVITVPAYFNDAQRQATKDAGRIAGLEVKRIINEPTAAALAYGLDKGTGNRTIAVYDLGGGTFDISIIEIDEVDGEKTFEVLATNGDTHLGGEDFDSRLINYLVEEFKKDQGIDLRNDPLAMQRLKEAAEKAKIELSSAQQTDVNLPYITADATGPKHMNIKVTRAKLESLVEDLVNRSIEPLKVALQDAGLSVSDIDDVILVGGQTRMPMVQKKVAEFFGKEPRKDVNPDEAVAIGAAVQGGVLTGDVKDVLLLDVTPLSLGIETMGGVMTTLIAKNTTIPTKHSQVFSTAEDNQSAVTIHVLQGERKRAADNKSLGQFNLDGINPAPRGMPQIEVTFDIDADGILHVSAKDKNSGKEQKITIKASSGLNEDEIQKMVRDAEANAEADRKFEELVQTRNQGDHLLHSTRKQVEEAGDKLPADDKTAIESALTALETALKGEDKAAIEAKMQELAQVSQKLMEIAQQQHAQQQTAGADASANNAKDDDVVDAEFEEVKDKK

Structure (SMILES) | Kd
CC(C)CCCC(C)[C@H]1CCC2C3CC=C4CC(=O)CC[C@]4(C)C3CC[C@@]21C (stereo not given in full) | > 4 mM (inactive)
Cc1cccc(C)c1NC(=O)/C=C/C(=O)O | > 4 mM (inactive)
Cc1c(/C=N/O)cnn1C | > 4 mM (inactive)
CC1(C)C[C@@H]2C(=O)CC[C@H]3O[C@]3(C)CC[C@H]21 | > 4 mM (inactive)
Cc1nccc2c1[nH]c1ccccc12 | > 4 mM (inactive)
CN1CCn2c1nc(N1CCOCC1)nc2=O | > 4 mM (inactive)
O=c1[nH]cc(S(=O)(=O)Nc2ccccc2)c(=O)[nH]1 | > 4 mM (inactive)
Fc1ccc(NC2=NCCS2)cc1Cl | > 4 mM (inactive)
COc1cc(OC)c2c(=O)c(OC)c(-c3ccc(OC)c(OC)c3)oc2c1 | > 4 mM (inactive)
COc1ccccc1NC(=O)c1ccc(C)s1 | > 4 mM (inactive)
NC(=O)CSc1ccc(-c2ccccc2)nn1 | > 4 mM (inactive)
CC(=O)Oc1cccc2ccc(=O)[nH]c12 | > 4 mM (inactive)
Cc1c(N=Cc2ccco2)c(=O)n(-c2ccccc2)n1C | > 4 mM (inactive)
CCN(CC)C(=O)c1n[nH]c(=O)c2ccccc12 | > 4 mM (inactive)
O=C(Nc1ccc2c(c1)OCO2)c1cccc(F)c1 | > 4 mM (inactive)
Cc1ccccc1OCC(=O)O | > 4 mM (inactive)
O=C1Cc2ccccc2N1c1ccccc1 | > 4 mM (inactive)
NC(=O)c1cn(-c2ccccc2)nc1-c1cccnc1 | > 4 mM (inactive)
O=C(O)CCC1NCC2CC1CN1CCCCC21 (stereo not given) | > 4 mM (inactive)
COc1ccccc1NS(=O)(=O)c1c[nH]c(=O)[nH]c1=O | > 4 mM (inactive)
O=c1[nH]nnc2sc3c(c12)CCCC3 | > 4 mM (inactive)
COc1cccc(C(=O)N2CCOCC2)c1 | > 4 mM (inactive)

Structure (SMILES) | Kd
CC(=O)NC1=NN(c2ccccc2)C(=O)C1 | > 4 mM (inactive)
O=C(NCc1cccs1)c1nn2cccnc2c1Cl | > 4 mM (inactive)
COC(=O)Nc1ccc2ncn(C)c(=O)c2c1 | > 4 mM (inactive)
CN(C)C(=S)Nc1ccccc1N1CCOCC1 | > 4 mM (inactive)
Cc1nnc(N2CCc3ccccc3C2)[nH]c1=O | > 4 mM (inactive)
O=C1COc2cc(O)ccc21 | > 4 mM (inactive)
Cc1cc(C(=O)Nc2cccnc2)cs1 | > 4 mM (inactive)
Cc1noc(C)c1C(=O)NC1=NCCS1 | > 4 mM (inactive)
CC(=O)Oc1ccc2c(c1C(C)C)CCC1C(C)(C)CCC[C@]21C (stereo not given in full) | > 4 mM (inactive)
O=S1(=O)CCC(NC(=S)Nc2ccc(O)cc2)C1 (stereo not given) | > 4 mM (inactive)
Oc1ccc2c(c1)OCO2 | > 4 mM (inactive)
O=C1CC2OCC=C3CN4CC[C@]56c7ccccc7N1C5[C@H]2[C@H]3CC46 (stereo not given in full) | > 4 mM (inactive)
Cn1c(CSc2nc3ccccc3s2)n[nH]c1=S | > 4 mM (inactive)
Cn1c(SCc2ccon2)nc2ccccc2c1=O | > 4 mM (inactive)
Nc1ccccc1-n1cccn1 | > 4 mM (inactive)
COc1ccc(N2C(=N)C(C)(C)NC2=O)cc1 | > 4 mM (inactive)
Nc1nncn1C(=O)c1ccccc1Cl | > 4 mM (inactive)
COC(=O)c1[nH]c2ccccc2c1C(=O)OC | > 4 mM (inactive)
O=C(NC(=S)NC1CCSC1=O)c1ccco1 (stereo not given) | > 4 mM (inactive)
Clc1ccccc1OCc1nc(-c2ccccn2)no1 | > 4 mM (inactive)
CCCCCCCCCCCCCCC(C(=O)OC)C(O)(CC(=O)OC)C(=O)OC (stereo not given) | > 4 mM (inactive)
COc1cccc(NC(=O)c2ocnc2C)c1 | > 4 mM (inactive)

Structure (SMILES) | Kd
COc1ccc(-c2noc(-c3ccco3)n2)cc1OC | > 4 mM (inactive)
CC1CCC(N2CCN(c3ncccn3)CC2)CC1 (stereo not given) | > 4 mM (inactive)
Nc1nc2ccc(S(N)(=O)=O)cc2s1 | > 4 mM (inactive)
Cc1cc(O)c(NC(=O)c2ccco2)cc1C | > 4 mM (inactive)
CC(=O)c1cc(C(N)=O)c(=S)[nH]c1C | > 4 mM (inactive)
CSc1ncc(CO)n1Cc1ccccc1 | > 4 mM (inactive)
CN(C)C(=S)Nc1nc2ccccc2s1 | > 4 mM (inactive)
Nc1ccc(S(=O)(=O)N2CCCCC2)cc1 | > 4 mM (inactive)
O=C(O)C1CC(=O)N(Cc2ccco2)C1 (stereo not given) | > 4 mM (inactive)
O=C(CSc1ncccn1)NCc1ccco1 | > 4 mM (inactive)
O=C(O)C1CSC(c2cc3ccccc3nc2Cl)N1 (stereo not given) | > 4 mM (inactive)
Cc1c(C(=O)Nn2cnnc2)oc2ccccc12 | > 4 mM (inactive)
O=C(Nc1ccccn1)c1cc(-n2cnnc2)ccc1Cl | > 4 mM (inactive)
O=C(O)C1Cc2c([nH]c3ccccc23)CN1 (stereo not given) | > 4 mM (inactive)
Cc1cc2cc(N)ccc2[nH]1 | > 4 mM (inactive)
O=C(O)c1ccc(CSc2ncn[nH]2)cc1 | > 4 mM (inactive)
CC1CCc2cc(F)ccc2N1C(=O)c1ccc(=O)[nH]n1 (stereo not given) | > 4 mM (inactive)
Cc1nc2ccccc2c2c1C(=O)N(C)C2=O | > 4 mM (inactive)
CS(C)=C1C(=O)NC(=O)N(c2ccccc2)C1=O | > 4 mM (inactive)
CC(=O)N(c1ccccc1)C1C=CS(=O)(=O)C1 (stereo not given) | > 4 mM (inactive)
CC1=C(/C=C/C(C)=C/C=C/C(C)=C/C=C/C=C(C)/C=C/C=C(C)/C=C/C2=C(C)CCCC2(C)C)C(C)(C)CCC1 | > 4 mM (inactive)
Cc1cccc(NC(=O)NC(N)=O)c1 | > 4 mM (inactive)

Structure (SMILES) | Kd
CC1(C)C=CC(=O)[C@@]2(C)C1CC(=O)[C@]1(C)C2CC[C@@]2(C)[C@H](c3ccoc3)OC(=O)C3OC321 (stereo not given in full) | > 4 mM (inactive)
CC(=O)Nc1ccc(N(C)C(C)=O)cc1 | > 4 mM (inactive)
COC1=CC(=O)C(O)=C/C1=C\C=C\c1ccccc1 | > 4 mM (inactive)
O=C(c1cccs1)N1CCCc2ccccc21 | > 4 mM (inactive)
O=C(NCc1ccco1)c1ccc(Br)s1 | > 4 mM (inactive)
COc1ccc2cc1Oc1ccc(cc1)C[C@H]1c3cc(c(OC)cc3CCN1C)Oc1c(OC)c(OC)cc3c1[C@H](C2)N(C)CC3 | > 4 mM (inactive)
C=C1C2CC[C@@]3(C)[C@H](c4ccoc4)OC(=O)C[C@]13O[C@H]1C[C@H](OC(C)=O)C(C)(C)[C@H](CC(=O)OC)[C@@]21C | > 4 mM (inactive)
CC(=O)O[C@H]1C[C@@H](OC(C)=O)C(C)(C)C2CC(=O)[C@]3(C)C(CC[C@@]4(C)[C@H](c5ccoc5)OC(=O)[C@H]5O[C@]543)[C@]21C (stereo not given in full) | > 4 mM (inactive)
CCn1nnc(NC(=O)c2cc3ccccc3o2)n1 | > 4 mM (inactive)
Cc1c(CO)cnn1-c1ccc(F)cc1 | > 4 mM (inactive)
O=C(NC(=O)N1CCOCC1)c1ccccc1 | > 4 mM (inactive)
Cc1cc(=O)[nH]c(NCC(=O)O)n1 | > 4 mM (inactive)
Nc1ccc(C2SCCS2)cc1 | > 4 mM (inactive)
Cc1cc(C)nc(NC(N)=NCc2ccco2)n1 | > 4 mM (inactive)
NC(=S)N1CCC(c2ccccc2)=N1 | > 4 mM (inactive)
CNc1nc(SC)nc(N2CCOCC2)n1 | > 4 mM (inactive)
O=C(CNC(=O)c1cccs1)NC1=NCCS1 | > 4 mM (inactive)
NS(=O)(=O)c1ccc(NC(=O)C(F)(F)F)cc1 | > 4 mM (inactive)
CCCCCCCCCCCC1=C(O)C(=O)C=C(O)C1=O | > 4 mM (inactive)
